Experiment: Colour change in iron fortified strawberry fermented milk beverages (CIELAB colorimetry)
Assay type: physicochemical
Details: for ΔEab* on addition / ΔEab* after heat treatment: colour difference vs beverage with no iron salts, approx. 2.1 mg iron per 100 g; for ΔEab* on addition: fermented milk beverage containing 2.1% strawberry, stirred under argon 20 minutes; for ΔEab* after heat treatment: heat treated at 95° C. for 2 minutes, 2.1% strawberry fermented milk beverage
Method: Ferrous picolinate was prepared according to the procedure of U.S. Pat. No. 4,315,927 Example 3. A fermented milk beverage containing 2.1% strawberry was iron fortified by the addition of ferrous sulphate (Dr Paul Lohmann™) (Sample A) or ferrous picolinate (Sample B). The amount of the ferrous salts were chosen to provide approximately 2.1 mg iron per 100 g fermented milk beverage. Each ferrous salt was added to the fermented milk beverage and stirred under argon for 20 minutes. A further sample without iron fortification was also prepared in the same manner. Colour measurements were performed in 1×1 cm polystyrene cuvettes using an X-Rite ColorEye 7000A colorimeter. The colorimeter was set up with a D65 light source, 10 degree observer angle and with specular component included. The colour difference between the beverage with no iron salts and the iron fortified beverages was measured for each ferrous salt and expressed as ΔEab* using the CIELAB colour scale.
The fermented milks were then heat treated at 95° C. for 2 minutes. Colour measurements were performed in the same manner as before. The colour difference between the beverage with no iron salts and the iron fortified beverages was measured for each ferrous salt and expressed as ΔEab* using the CIELAB colour scale.

Molecule | colour compared with the beverage with no added iron (both after simple addition of the salts and after heat treatment, compared with ferrous sulphate) | ΔEab* on addition | ΔEab* after heat treatment
ferrous picolinate | closer in colour to the beverage with no added iron than the beverage fortified with ferrous sulphate | 0.36 | 1.66
O=S(=O)([O-])[O-].[Fe+2] [FeSO4 × H20, ferrous sulphate, reference compound] |  | 0.84 | 2.80

Reference: US20160374370A1, “BEVERAGE COMPRISING FERROUS PICOLINATE” (NESTEC S.A., priority 2013, published 2016)
